# Test results from US10265337B2, “Use of A3 adenosine receptor agonist in osteoarthritis treatment” (CAN-FITE BIOPHARMA LTD., priority 2005, dated 2019).
# Assays:
# [1] = tested on: human fibroblast like synoviocytes (FLS); assay: MTT proliferation assay, human fibroblast like synoviocytes; type: cell-based; conditions: CF101 10 nM added for the last 24 hours of 72 hours, FLS from OA patients, FIG. 1A
# Method: The effect of IB-MECA (herein at times CF101) alone or in combination with MTX, on the proliferation of the human or rat fibroblast like synoviocytes (FLS) was tested. […] Human synovial fluid samples were collected from osteoarthritis (OA) patients undergoing paracenthesis. The fluid was centrifuged and the supernatant removed. The cells were resuspended in DMEM containing type I collagenase (4 mg/ml), for 2 hours, and shacked vigorously at 37°. The released cells in the supernatant were harvested by centrifugation and were cultured in DMEM containing 10% FBS, 2 mM glutamine, 100 U/ml penicillin, 100 μg/ml streptomycin, 1% non essential amino acids, 1% sodium pyruvate and […] HEPES buffer in a 37° C., 5% CO2 incubator. After overnight culture, non-adherent cells were removed. The adherent cells (FLS) were subcultured at a 1:2 ratio, and the cells from passages 4 through 10 were used in the experiments. The effect of CF101 alone or in combination with MTX, on the proliferation of the FLS was tested utilizing an MTT assay. The cells (5×10^4/ml cells) were incubated in 96-well microtiter plates for 72 hours in the growth medium. At the last 24 hours CF101 (10 nM) were added to the cultures.
# [2] = tested on: mono-idoacetate (MIA) experimental osteoarthritis (OA); assay: MIA experimental osteoarthritis model, roentgenographic examination of knees; type: in vivo, rat; conditions: MIA rats; CF101 100 μg/kg PO twice daily; FIGS. 3A-3D
# Method: (§1) In the following study the effect of IB-MECA (herein, at times, CF101) on the development of experimental osteoarthritis (OA) was determined. In this study the mono-idoacetate (MIA) experimental model was utilized. The MIA is a rat experimental model that rapidly reproduces the clinical and pathological characteristic of OA. […] Infra-articular injection of MIA induces chondrocyte death in the articular cartilage of rodent. Specifically, male Wistar rats (˜200 gr) (Harlan laboratories) were anesthetized with Isoflurane and the right leg was flexed at a 90° angle of the knee. The MIA was dissolved in physiological saline and 2 mg, at a volume of 50 μL were injected intra-articular of the right foot of each animal, using a 27-gauge, 0.5-inch needle. Treatment with CF101, 100 μg/kg, Per Oz (PO), twice daily was initiated at day 7 post-injection.
# A3AR = biological target: T1, A3AR (Rattus norvegicus, UniProt P28647); assay: Western blot of knee joint protein extracts, A3AR; type: in vivo; conditions: OA rats, CF101 treated vs control, FIG. 4A
# T1 construct: knee joints protein extracts from control and CF101 treated animal were subjected to Western blot analysis; from tissue; host or cells: rat knee joint (OA rats)
# T1 sequence (P28647 1-320): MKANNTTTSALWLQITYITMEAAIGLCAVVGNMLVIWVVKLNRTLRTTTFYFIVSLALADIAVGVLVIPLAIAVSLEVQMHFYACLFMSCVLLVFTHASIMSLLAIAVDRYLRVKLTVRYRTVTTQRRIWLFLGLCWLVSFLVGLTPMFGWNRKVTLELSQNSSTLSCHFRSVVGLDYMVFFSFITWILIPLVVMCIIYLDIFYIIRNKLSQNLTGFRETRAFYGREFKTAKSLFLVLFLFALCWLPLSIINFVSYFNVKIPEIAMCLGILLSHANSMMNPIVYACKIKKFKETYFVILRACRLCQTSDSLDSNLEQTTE
# Excerpt: (§2) To explore the fate of the A3AR and downstream key signaling proteins participating in the NF-kB and Wnt signaling pathways, knee joints protein extracts from control and CF101 treated animal were subjected to Western blot analysis.
# GSK-3β = assay: Western blot of knee joint protein extracts, GSK-3β; type: in vivo, rat; conditions: OA rats, CF101 treated vs control, FIG. 4E
# Excerpt: as §2
# IKK = assay: Western blot of knee joint protein extracts, IKK; type: in vivo, rat; conditions: OA rats, CF101 treated vs control, FIG. 4C
# Excerpt: as §2
# PI3K = assay: Western blot of knee joint protein extracts, PI3K; type: in vivo, rat; conditions: OA rats, CF101 treated vs control, FIG. 4B
# Excerpt: as §2
# [3] = oral, healthy young men; cited from earlier work
# [4] = tested on: mono-idoacetate (MIA) experimental osteoarthritis (OA); assay: MIA experimental osteoarthritis model, knee diameter; type: in vivo, rat; conditions: male Wistar rats; CF101 100 μg/kg PO twice daily from day 7 post-injection; vs control group, P=9.48317E-06; FIG. 2
# Method: as §1, with “post-injection. Knee diameter was measured using calibrated digital caliper adapted by reinforcing the tips for knee diameter measure. The results presented in FIG. 2 show the delta between the diameter of the MIA injected knee (Right knee) and the diameter of the MIA un-injected knee (Left knee) within the same animal. The group of the control is compared to the CF101 treated group (5 animals in each group).” for “post-injection.”
# rat FLS = assay: MTT proliferation assay, rat fibroblast like synoviocytes; type: cell-based; conditions: CF101 10 nM added for the last 24 hours of 72 hours, FLS from adjuvant induced arthritis rats, FIG. 1B
# Method: The effect of IB-MECA (herein at times CF101) alone or in combination with MTX, on the proliferation of the human or rat fibroblast like synoviocytes (FLS) was tested. […] Synovia tissue from adjuvant induced arthritis rats was collected. The tissue was minced and subjected for digestion in 4 mg/ml type I collagenase and 0.25 w/v trypsin in DMEM. The mixture was shacked vigorously for 4 hours at 37°. The released cells were separated from the supernatant by centrifugation and cultured in DMEM containing 15% FCS, 2 mM glutamine, 100 U/ml penicillin, 100 μg/ml streptomycin in a 37° C., 5% CO2 incubator. After overnight incubation the nonadherent cells were removed. The adherent cells (FLS) were sub-cultured at a 1:2 ratio, and the cells from passages 4 through 10 were used in the experiments. The effect of CF101 alone or in combination with MTX, on the proliferation of the FLS was tested utilizing an MTT assay. The cells (5×10^4/ml cells) were incubated in 96-well microtiter plates for 72 hours in the growth medium. At the last 24 hours CF101 (10 nM) were added to the cultures.
compound,measurement,setting,value
"CNC(=O)[C@H]1O[C@@H](n2cnc3c(NCc4cccc(I)c4)ncnc32)[C@H](O)[C@@H]1O [CF101, 1-deoxy-1-{6-[({3-iodophenyl}methyl)amino]-9H-purine-9-yl}-N-methyl-β-D-ribofuranuronamide]",effect on the proliferation of human FLS,[1],marked inhibitory effect
same,roentgenographic examination of knees,[2],normal tibial epiphysial line without sclerosis
same,A3AR expression level in knee joints,A3AR,down-regulated
same,GSK-3β expression level in knee joints,GSK-3β,up-regulated
same,IKK expression level in knee joints,IKK,down-regulation
same,PI3K expression level in knee joints,PI3K,down-regulation
same,half life in human plasma,[3],8 to 10 h
same,development of tissue swelling (delta between diameter of MIA injected and un-injected knee),[4],significantly inhibited
same,effect on the proliferation of rat FLS,rat FLS,marked inhibitory effect
